{"source": "patent US20050165081A1", "about": "“Use of anastrozole for the treatment of post-menopausal women having early breast cancer” (priority 2001, published 2005)", "key": {"[1]": {"tested_on": "early breast cancer", "test": "Randomised, double-blind, multicentre adjuvant trial: time to disease recurrence / disease-free survival and new breast primaries", "assay_type": "in vivo, post-menopausal women", "conditions": "for First event / First events: Contralateral (DCIS) / First events: Contralateral (invasive) / First events: Death - breast cancer / First events: Death - other reason / First events: Distant / First events: Locoregional: number of first events, ITT population", "experimental": "(§1) The trial was designed to compare tamoxifen (20 mg once daily [od]) and anastrozole (1 mg od) and to compare tamoxifen (20 mg od) and the combination of anastrozole (1 mg od) plus tamoxifen (20 mg od) as adjuvant treatment in terms of: • a) time to recurrence of breast cancer (defined as the earliest of local or distant recurrence, new primary breast cancer, or death); and • b) safety and side effects. Secondary objectives of this trial were to compare (i) tamoxifen and anastrozole and (ii) to compare tamoxifen and the combination of anastrozole plus tamoxifen as adjuvant treatment in terms of: • a) time to distant recurrence; • b) survival; and • c) incidence of new breast primaries.\n(§2) Specifically, the trial was designed as a randomised, double-blind, multicentre trial to compare the efficacy and safety of tamoxifen alone, anastrozole alone and anastrozole in combination with tamoxifen as adjuvant treatment for breast cancer in post-menopausal women.\nPatients were assessed at entry, 3 months, 6 months and thereafter at 6-month intervals. Patients were recruited from 381 centres and in 21 countries. The patients were recruited between July 1996 and March 2000.\nThe double blind trial used both active and placebo anastrozole and tamoxifen tables, in order to maintain blindness to trial therapy. Anastrozole 1 mg and matching anastrozole placebo were supplied as white, film-coated tablets. Tamoxifen 20 mg active tablets and matching tamoxifen placebo were supplied as white, round, biconvex tablets. Patients were randomised to receive one of three oral therapy regimens. The daily dose is one tablet of anastrozole (1 mg active or placebo) plus one tablet of tamoxifen (20 mg active or placebo). Patients were instructed to take their daily dose at approximately the same time each day. At entry to the trial patients received either a 13-week supply or a 26-week supply of trial material. Patients who received a 13-week supply received a further 13-week supply at the first follow-up visit (3-months). From the 6-month visit onwards, patients received a 26-week supply. In order to assess compliance, patients were asked to return all unused tablets at each visit.\nTherapy was started as soon as possible after randomisation, but not more than 8 weeks after completion of surgery and chemotherapy. […] Primary chemotherapy must have started within 8 weeks of completing primary surgery. Patients who stop primary chemotherapy before completion of the planned number of cycles may also be randomised. […] These drugs include the following:— • cytotoxic chemotherapy; • oral adminstration of ketoconazole (antifungal) or related compounds (i.e. topical applications are acceptable); • other hormonal treatments for breast cancer.\nPatients were reviewed for recurrence of breast cancer at all follow-up visits, using the following criteria, which are based on British Breast Group recommendations:—\nNew breast primaries (either contralateral or ipsilateral) were regarded as disease recurrence events in the statistical analyses of time to recurrence.\nThe primary statistical endpoint of the trial was time to disease recurrence (locoregional or distant recurrence, new primary breast cancer or death from any cause) and safety/tolerability. The secondary statistical endpoints were time to distant recurrence, time to death, the incidence of new breast primaries and the incidence of pre-defined adverse events. In summary, two treatment comparisons were made: (1) anastrozole alone compared to tamoxifen alone and (2) tamoxifen alone compared to anastrozole and tamoxifen in combination."}, "[2]": {"assay_type": "in vivo", "experimental": "as §1, §2\nAt the major analysis, the incidence rates of the following pre-defined adverse events was formally compared between treatment groups defined by treatment received: hot flushes, nausea and vomiting, asthenia, mood disturbances, musculo-skeletal disorders, vaginal bleeding, vaginal discharge, endometrial cancer, fractures, cataract, venous thromboembolic events, and ischaemic cardiovascular disease. The primary analysis includes all patients who received trial treatment, analysed according to treatment received. A secondary subgroup analysis was also be undertaken, analysed according to trial treatment received, in patients with oestrogen receptor (ER) positive and/or progesterone receptor (PR) positive tumours, patients with ER negative and PR negative tumours, and all other patients remaining safety data was summarised and presented by treatment received."}, "[3]": {"tested_on": "advanced breast cancer", "conditions": "advanced disease, cited from earlier work"}, "[4]": {"tested_on": "breast cancer", "conditions": "adjuvant tamoxifen for two years or more, no concomitant chemotherapy; cited from earlier work"}}, "note": "“Also recorded” adds a separate entry of the source. Structures can show the parent of a compound that is named as a salt. Where two headings read alike, the source gives them in different places."}
{"smiles": "CC/C(=C(\\c1ccccc1)c1ccc(OCCN(C)C)cc1)c1ccccc1", "note": "[tamoxifen, tamoxifen citrate]", "values": [{"measurement": "First event", "setting": "[1]", "value": 379}, {"measurement": "First events: Contralateral (DCIS)", "setting": "[1]", "value": 3}, {"measurement": "First events: Contralateral (invasive)", "setting": "[1]", "value": 30}, {"measurement": "First events: Death - breast cancer", "setting": "[1]", "value": 1}, {"measurement": "First events: Death - other reason", "setting": "[1]", "value": 81}, {"measurement": "First events: Distant", "setting": "[1]", "value": 181}, {"measurement": "First events: Locoregional", "setting": "[1]", "value": 83}, {"measurement": "tolerability versus anastrozole", "setting": "[2]; musculoskeletal disorders and fractures", "value": "better tolerated"}, {"measurement": "patients who will respond", "setting": "[3]; ER and PR negative patients", "value": "< 10", "unit": "%"}, {"measurement": "patients who will respond", "setting": "[3]; ER and PR positive patients", "value": "approximately 70%"}, {"measurement": "annual reduction in mortality", "setting": "[4]", "value": 24, "unit": "%"}, {"measurement": "annual reduction in recurrence", "setting": "[4]", "value": 39, "unit": "%"}]}
{"smiles": "CC(C)(C#N)c1cc(Cn2cncn2)cc(C(C)(C)C#N)c1", "note": "[anastrozole]", "values": [{"measurement": "rate of disease recurrence, comparison in words", "setting": "[1]; FIG. 2, receptor positive population", "value": "superior to tamoxifen"}, {"measurement": "HR, disease-free survival", "setting": "[1]; ITT (overall) population, versus tamoxifen, HR <1.00 favours anastrozole or the combination", "value": 0.83}, {"measurement": "reduction in recurrence rate", "setting": "[1]; hormone receptor positive (ER and/or PR positive) patients, versus tamoxifen", "value": 22, "unit": "%"}, {"measurement": "reduction in the rate of recurrence events", "setting": "[1]; main analysis, all patients, versus tamoxifen, locoregional, distant, contralateral events and deaths", "value": 17, "unit": "%"}, {"measurement": "First event", "setting": "[1]", "value": 317}, {"measurement": "First events: Contralateral (DCIS)", "setting": "[1]", "value": 5}, {"measurement": "First events: Contralateral (invasive)", "setting": "[1]", "value": 9}, {"measurement": "First events: Death - breast cancer", "setting": "[1]", "value": 2}, {"measurement": "First events: Death - other reason", "setting": "[1]", "value": 78}, {"measurement": "First events: Distant", "setting": "[1]", "value": 156}, {"measurement": "First events: Locoregional", "setting": "[1]", "value": 67}, {"measurement": "incidence of new primary (contralateral) breast cancer, comparison in words", "setting": "[1]; overall population", "value": "significantly more effective than tamoxifen"}, {"measurement": "disease-free survival / rate of disease recurrence, comparison in words", "setting": "[1]; overall population, adjuvant treatment of early breast cancer", "value": "significantly more effective than tamoxifen; also recorded: superior to tamoxifen"}, {"measurement": "incidence of new primary (contralateral) breast cancer, comparison in words", "setting": "[1]; overall population, listed as anastrazole", "value": "superiority"}, {"measurement": "HR, incidence of new (contralateral) breast primaries", "setting": "[1]; overall population, versus tamoxifen", "value": 0.42}, {"measurement": "OR, incidence of contralateral breast cancer", "setting": "[1]; overall population, versus tamoxifen, 1.00 would show equivalence", "value": 0.42}, {"measurement": "HR, disease-free survival", "setting": "[1]; receptor positive population, versus tamoxifen", "value": 0.78}, {"measurement": "overall tolerability in the adjuvant programme", "setting": "[2]; FIG. 4, pre-defined adverse events", "value": "well tolerated"}, {"measurement": "tolerability versus tamoxifen", "setting": "[2]; endometrial cancer, vaginal bleeding, vaginal discharge, ischemic cerebrovascular events, venous thromboembolic events, hot flushes, weight gain", "value": "significantly better tolerated"}]}
